The text below walks through data of article PMC10053925, “Virtual Screening of Novel 24-Dehydroxysterol Reductase (DHCR24) Inhibitors and the Biological Evaluation of Irbesartan in Cholesterol-Lowering Effect” (Molecules, 2023).

Assay [1] addresses T1, 3β-hydroxysterol-Δ(24)-reductase (DHCR24) (Homo sapiens, UniProt Q15392).
T1 construct: DHCR24 immunoprecipitated from HepG2 cells infected with Ad-cmv-DHCR24 (antibody-DHCR24 complex)
T1 sequence (Q15392 23-516): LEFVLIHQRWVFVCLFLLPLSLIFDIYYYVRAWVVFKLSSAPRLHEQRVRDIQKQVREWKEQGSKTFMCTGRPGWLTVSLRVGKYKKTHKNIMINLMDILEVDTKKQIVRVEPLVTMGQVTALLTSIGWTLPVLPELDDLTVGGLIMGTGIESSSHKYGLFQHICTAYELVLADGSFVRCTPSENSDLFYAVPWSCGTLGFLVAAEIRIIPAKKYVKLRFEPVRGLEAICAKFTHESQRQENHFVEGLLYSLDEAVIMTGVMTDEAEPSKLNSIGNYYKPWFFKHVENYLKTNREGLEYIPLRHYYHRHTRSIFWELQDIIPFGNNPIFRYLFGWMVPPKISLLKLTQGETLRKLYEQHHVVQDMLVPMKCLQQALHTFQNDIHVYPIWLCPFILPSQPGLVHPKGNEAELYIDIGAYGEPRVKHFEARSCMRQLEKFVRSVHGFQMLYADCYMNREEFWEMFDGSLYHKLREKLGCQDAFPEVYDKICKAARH
In words: in vitro turnover to cholesterol by immunoprecipitated DHCR24, HPLC. The format is biochemical.

For assay [2], the target named is T1, 3β-hydroxysterol-Δ(24)-reductase (DHCR24). In words: immune complex-activity assay; HPLC of desmosterol to cholesterol conversion. The class given is biochemical.

With `CC(C)=CCC[C@@H](C)[C@H]1CC[C@H]2[C@@H]3CC=C4C[C@@H](O)CC[C@]4(C)[C@H]3CC[C@]12C` [DES, desmosterol], the “in vitro turnover to cholesterol by immunoprecipitated DHCR24, HPLC” value in assay [1] is on record as “desmosterol in the system can be catalyzed into cholesterol only in the presence of the DHCR24 enzyme”.
For orientation: IC50 means the concentration needed to halve the response being measured. Low values mean greater potency in that assay, high ones weaker potency in that assay. `CCCCC1=NC2(CCCC2)C(=O)N1Cc1ccc(-c2ccccc2-c2nnn[nH]2)cc1` [IRB, Irbesartan] came in with an IC50 in assay [2] of 602 nM.
